We go through 16 compounds from PubChem BioAssay AID256 (DTP/NCI, 2004).

Values joined by “and” are separate entries in the source; they are usually repeats but may differ in a detail not shown here. Equal values may be shown once. Toxic doses and inconclusive results are not listed.

The subject of the experiment is CD2F1 mice, L1210 leukemia ip, survival T/C. The experiment in a line: NCI In Vivo Anticancer Drug Screen. Data for tumor model L1210 Leukemia (intraperitoneal) in CD2F1 (CDF1) mice. As to conditions: higher = longer survival. In short, it runs like this: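 Antitumor effect is scored in animals hosting a serially transplanted tumor. Values compare compound-dosed animals against vehicle-only controls as a simple quotient.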

[1] abbreviates: endpoint: mean survival time, dose: 100.0 mg/kg/injection, schedule: Q01DX009 (ip), vehicle: saline with Tween-80.
Where [2] appears, read: endpoint: mean survival time, dose: 100.0 mg/kg/injection, schedule: Q04DX003 (ip), vehicle: saline with Tween-80.
Setting [3] is: endpoint: mean survival time, dose: 200.0 mg/kg/injection, schedule: Q01DX009 (ip), vehicle: saline with Tween-80.
[4] abbreviates: endpoint: mean survival time, dose: 200.0 mg/kg/injection, schedule: Q04DX003 (ip), vehicle: saline with Tween-80.
Where [5] appears, read: endpoint: mean survival time, dose: 400.0 mg/kg/injection, schedule: Q04DX003 (ip), vehicle: saline with Tween-80.
The mark [6] stands for this setting: endpoint: mean survival time, dose: 400.0 mg/kg/injection, schedule: Q01DX009 (ip), vehicle: saline with Tween-80.
The mark [7] stands for this setting: endpoint: mean survival time, dose: 100.0 mg/kg/injection, schedule: Q01DX001 (ip), vehicle: saline with Tween-80.
[8] abbreviates: endpoint: mean survival time, dose: 200.0 mg/kg/injection, schedule: Q01DX001 (ip), vehicle: saline with Tween-80.
Where [9] appears, read: endpoint: mean survival time, dose: 400.0 mg/kg/injection, schedule: Q01DX001 (ip), vehicle: saline with Tween-80.

In the case of `CCCCCCCCCCCCCCCCCC(=O)NN`, the T/C is 93 % of control under setting [1]; 91 % of control under setting [2]; 104 % of control under setting [3]; 96 % of control under setting [4]; 119 % of control (endpoint: mean survival time, dose: 266.0 mg/kg/injection, schedule: Q01DX009 (ip), vehicle: saline with Tween-80); 109 % of control under setting [5]. The T/C (endpoint: mean survival time, dose: 600.0 mg/kg/injection, schedule: Q01DX009 (ip), vehicle: saline with Tween-80) was 119 % of control.
Take `O=C(O)c1cc(N=Nc2ccc3ccccc3c2)ccc1O`: the T/C is, setting by setting: under setting [1], 103 % of control; under setting [3], 106 % of control; under setting [6], 98 % of control.
Take `OCC(O)C(O)C(O)C(/C=N/Nc1ccccc1)=N\Nc1ccccc1` (stereo not given): the T/C runs as follows: (endpoint: mean survival time, dose: 75.0 mg/kg/injection, schedule: Q01DX001 (ip), vehicle: saline) 95 % of control; (endpoint: mean survival time, dose: 150.0 mg/kg/injection, schedule: Q01DX001 (ip), vehicle: saline) 100 % of control; (endpoint: mean survival time, dose: 300.0 mg/kg/injection, schedule: Q01DX001 (ip), vehicle: saline) 97 % of control.
`CC(=O)N(C)c1ccc(C)cc1C`: the T/C under setting [1] is 93 % of control, the T/C under setting [3] is 96 % of control and the T/C under setting [6] was 98 % of control.
With `O=[N+]([O-])c1ccc(N=Nc2ccc(N3CC3)c([N+](=O)[O-])c2)cc1`, the T/C (endpoint: mean survival time, dose: 65.0 mg/kg/injection, schedule: Q01DX001 (ip), vehicle: Klucel (hydroxypropylcellulose) (HPC)) is 96 % of control; the T/C (endpoint: mean survival time, dose: 130.0 mg/kg/injection, schedule: Q01DX001 (ip), vehicle: Klucel (hydroxypropylcellulose) (HPC)) is 88 % of control; the T/C (endpoint: mean survival time, dose: 260.0 mg/kg/injection, schedule: Q01DX001 (ip), vehicle: Klucel (hydroxypropylcellulose) (HPC)) is 89 % of control.
Regarding `O=P(CCCCl)(OCCCCl)OCCCCl`, the T/C by setting is: (endpoint: mean survival time, dose: 100.0 mg/kg/injection, schedule: Q01DX009 (ip), vehicle: saline) 100 % of control; (endpoint: mean survival time, dose: 200.0 mg/kg/injection, schedule: Q01DX009 (ip), vehicle: saline) 101 % of control; (endpoint: mean survival time, dose: 400.0 mg/kg/injection, schedule: Q01DX009 (ip), vehicle: saline) 100 % of control.
As for `O=C(NC(=S)c1ccccc1)Nc1ccc(Cl)cc1`, the T/C is 90 % of control under setting [7], 94 % of control under setting [8] and 94 % of control under setting [9].
`CC(/C=N/NC(N)=S)Cc1ccc(C(C)C)cc1` (stereo not given): the T/C reads like this: (endpoint: mean survival time, dose: 3.12 mg/kg/injection, schedule: Q01DX009 (ip), vehicle: acetone) 104 % of control; (endpoint: mean survival time, dose: 6.25 mg/kg/injection, schedule: Q01DX009 (ip), vehicle: acetone) 104 % of control; (endpoint: mean survival time, dose: 12.5 mg/kg/injection, schedule: Q01DX009 (ip), vehicle: acetone) 104 % of control.
On to `CC(Cc1ccc(O)cc1)NCC(O)c1ccc(O)c(O)c1` (stereo not given), for which the T/C (endpoint: mean survival time, dose: 12.5 mg/kg/injection, schedule: Q01DX009 (ip), vehicle: saline with Tween-80) is 102 % of control and 104 % of control; the T/C (endpoint: mean survival time, dose: 25.0 mg/kg/injection, schedule: Q01DX009 (ip), vehicle: saline with Tween-80) is 103 % of control and 104 % of control; the T/C (endpoint: mean survival time, dose: 50.0 mg/kg/injection, schedule: Q01DX009 (ip), vehicle: saline with Tween-80) was 105 % of control and 111 % of control; the T/C under setting [1] was 108 % of control and 111 % of control; the T/C under setting [3] is 103 % of control and 111 % of control; the T/C under setting [6] was 113 % of control and 112 % of control.
Take `C=Cc1cc(OC)c2c(c1)c(=O)oc1c2cc(OC)c2c(O)ccc(C3OC(C)C(O)C(C)(O)C3O)c21` (stereo not given): the T/C by setting is: (endpoint: median survival time, dose: 5.0 mg/kg/injection, schedule: Q01DX009 (ip), vehicle: DMSO) 107 % of control; (endpoint: median survival time, dose: 10.0 mg/kg/injection, schedule: Q01DX009 (ip), vehicle: DMSO) 116 % of control and 111 % of control; (endpoint: median survival time, dose: 10.0 mg/kg/injection, schedule: Q01DX009 (ip), vehicle: other) 118 % of control; (endpoint: median survival time, dose: 20.0 mg/kg/injection, schedule: Q01DX009 (ip), vehicle: DMSO) 116 % of control and 122 % of control; (endpoint: median survival time, dose: 80.0 mg/kg/injection, schedule: Q01DX009 (ip), vehicle: DMSO) 155 % of control; (endpoint: median survival time, dose: 160.0 mg/kg/injection, schedule: Q01DX009 (ip), vehicle: DMSO) 120 % of control. For the setting “endpoint: median survival time, dose: 160.0 mg/kg/injection, schedule: Q01DX009 (ip), vehicle: other”, the T/C is 113 % of control.
As to `Oc1ccc2ccccc2c1Cc1ccccc1`, the T/C under setting [2] is 101 % of control, the T/C under setting [4] was 97 % of control and the T/C under setting [5] was 98 % of control.
On to `C=C1C(=O)OC2CCCCC3OC3C12` (stereo not given), for which the T/C by setting is: (endpoint: mean survival time, dose: 25.0 mg/kg/injection, schedule: Q01DX001 (ip), vehicle: saline) 108 % of control; (endpoint: mean survival time, dose: 50.0 mg/kg/injection, schedule: Q01DX001 (ip), vehicle: saline) 96 % of control; (endpoint: mean survival time, dose: 100.0 mg/kg/injection, schedule: Q01DX001 (ip), vehicle: saline) 91 % of control.
Take `O=C1c2[nH]c3ccccc3c2CC1N1C(=O)c2ccccc2C1=O` (stereo not given): the T/C by setting is: under setting [2], 87 % of control; under setting [4], 93 % of control; under setting [5], 91 % of control.
On to `NCCCCC(N)C(=O)O` (stereo not given), for which the T/C was 100 % of control (endpoint: median survival time, dose: 3.13 mg/kg/injection, schedule: Q04DX002 (ip), vehicle: saline); 94 % of control (endpoint: median survival time, dose: 6.25 mg/kg/injection, schedule: Q04DX002 (ip), vehicle: saline); 105 % of control (endpoint: median survival time, dose: 25.0 mg/kg/injection, schedule: Q04DX002 (ip), vehicle: saline); 117 % of control (endpoint: median survival time, dose: 50.0 mg/kg/injection, schedule: Q04DX002 (ip), vehicle: saline).
Consider `COCCCNc1ccc([N+](=O)[O-])cn1`, for which the T/C was 100 % of control (endpoint: mean survival time, dose: 50.0 mg/kg/injection, schedule: Q01DX001 (ip), vehicle: carboxymethylcellulose (CMC)); 100 % of control (endpoint: mean survival time, dose: 100.0 mg/kg/injection, schedule: Q01DX001 (ip), vehicle: carboxymethylcellulose (CMC)); 108 % of control (endpoint: mean survival time, dose: 200.0 mg/kg/injection, schedule: Q01DX001 (ip), vehicle: carboxymethylcellulose (CMC)).
In the case of `CCOc1cccc(Cc2cn(Cc3ccc(NC(=O)c4ccc(S(=O)(=O)F)cc4)cc3)c(=O)[nH]c2=O)c1`, the T/C was 101 % of control under setting [7], 95 % of control under setting [8] and 95 % of control under setting [9].
